Experimental data reported in ChEMBL document CHEMBL3046647, “Khayasin and 2S-methylbutanoylproceranolide: Promising candidate insecticides for the control of the coconut leaf beetle, Brontispa longissima” (2011).
Converted amounts (≈) assume the structure as drawn.

What was measured:
Format in all cases: functional
[1] = tested on: Spodoptera litura; assay: Antifeedant activity against Spodoptera litura third-instar larvae fed on compound pre-treated castor-oil plant leaves assessed as antifeedant rate at 1 mg/ml after 24 hr
[2] = tested on: Brontispa longissima; assay: Insecticidal activity against Brontispa longissima fourth-instar larvae fed on compound pre-treated Cocos nucifera L. leaves assessed as insect mortality at 50 ug/ml measured 24 hr after compound treatment; details: in Cocos nucifera
[3] = tested on: Brontispa longissima; assay: Insecticidal activity against Brontispa longissima fourth-instar larvae fed on compound pre-treated Cocos nucifera L. leaves assessed as insect mortality at 50 ug/ml measured 12 hr after compound treatment; details: in Cocos nucifera
[4] = tested on: Brontispa longissima; assay: Insecticidal activity against Brontispa longissima third-instar larvae fed on compound pre-treated Cocos nucifera L. leaves assessed as insect mortality at 50 ug/ml measured 24 hr after compound treatment; details: in Cocos nucifera
[5] = tested on: Brontispa longissima; assay: Insecticidal activity against Brontispa longissima fourth-instar larvae fed on compound pre-treated Cocos nucifera L. leaves assessed as insect mortality at 50 ug/ml measured 72 hr after compound treatment; details: in Cocos nucifera
[6] = tested on: Brontispa longissima; assay: Insecticidal activity against Brontispa longissima second-instar larvae fed on compound pre-treated Cocos nucifera L. leaves assessed as insect mortality at 50 ug/ml measured 24 hr after compound treatment; details: in Cocos nucifera
[7] = tested on: Brontispa longissima; assay: Insecticidal activity against Brontispa longissima third-instar larvae fed on compound pre-treated Cocos nucifera L. leaves assessed as insect mortality at 50 ug/ml measured 12 hr after compound treatment; details: in Cocos nucifera
[8] = tested on: Brontispa longissima; assay: Insecticidal activity against Brontispa longissima third-instar larvae fed on compound pre-treated Cocos nucifera L. leaves assessed as insect mortality at 50 ug/ml measured 48 hr after compound treatment; details: in Cocos nucifera
[9] = tested on: Brontispa longissima; assay: Insecticidal activity against Brontispa longissima second-instar larvae fed on compound pre-treated Cocos nucifera L. leaves assessed as insect mortality at 50 ug/ml measured 72 hr after compound treatment; details: in Cocos nucifera
[10] = tested on: Brontispa longissima; assay: Insecticidal activity against Brontispa longissima second-instar larvae fed on compound pre-treated Cocos nucifera L. leaves assessed as insect mortality at 50 ug/ml measured 48 hr after compound treatment; details: in Cocos nucifera
[11] = tested on: Brontispa longissima; assay: Insecticidal activity against Brontispa longissima third-instar larvae fed on compound pre-treated Cocos nucifera L. leaves assessed as insect mortality at 50 ug/ml measured 72 hr after compound treatment; details: in Cocos nucifera
[12] = tested on: Spodoptera litura; assay: Insecticidal activity against Spodoptera litura third-instar larvae fed on compound pre-treated Ricinus communis L. leaves assessed as insect mortality at 1 mg/ml measured 12 days after compound treatment; details: in Ricinus communis
[13] = tested on: Brontispa longissima; assay: Insecticidal activity against Brontispa longissima second-instar larvae fed on compound pre-treated Cocos nucifera L. leaves assessed as insect mortality at 50 ug/ml measured 12 hr after compound treatment; details: in Cocos nucifera
[14] = tested on: Brontispa longissima; assay: Insecticidal activity against Brontispa longissima fourth-instar larvae fed on compound pre-treated Cocos nucifera L. leaves assessed as insect mortality at 50 ug/ml measured 48 hr after compound treatment; details: in Cocos nucifera
[15] = tested on: Spodoptera litura; assay: Antifeedant activity against Spodoptera litura third-instar larvae fed on compound pre-treated castor-oil plant leaves assessed as antifeedant rate at 1 mg/ml after 48 hr
[16] = tested on: Brontispa longissima; assay: Insecticidal activity against Brontispa longissima fifth-instar larvae fed on compound pre-treated Cocos nucifera L. leaves assessed as insect mortality at 1 ug/ml measured 24 hr after compound treatment; details: in Cocos nucifera
[17] = tested on: Brontispa longissima; assay: Insecticidal activity against Brontispa longissima fifth-instar larvae fed on compound pre-treated Cocos nucifera L. leaves assessed as insect mortality at 10 ug/ml measured 12 hr after compound treatment; details: in Cocos nucifera
[18] = tested on: Brontispa longissima; assay: Insecticidal activity against Brontispa longissima fifth-instar larvae fed on compound pre-treated Cocos nucifera L. leaves assessed as insect mortality at 50 ug/ml measured 72 hr after compound treatment; details: in Cocos nucifera
[19] = tested on: Spodoptera litura; assay: Antifeedant activity against Spodoptera litura third-instar larvae fed on compound pre-treated castor-oil plant leaves assessed as antifeedant rate at 0.5 mg/ml after 24 hr
[20] = tested on: Brontispa longissima; assay: Insecticidal activity against Brontispa longissima fifth-instar larvae fed on compound pre-treated Cocos nucifera L. leaves assessed as insect mortality at 50 ug/ml measured 24 hr after compound treatment; details: in Cocos nucifera
[21] = tested on: Brontispa longissima; assay: Insecticidal activity against Brontispa longissima fifth-instar larvae fed on compound pre-treated Cocos nucifera L. leaves assessed as insect mortality at 50 ug/ml measured 48 hr after compound treatment; details: in Cocos nucifera
[22] = tested on: Spodoptera litura; assay: Antifeedant activity against Spodoptera litura third-instar larvae fed on compound pre-treated castor-oil plant leaves assessed as antifeedant rate at 0.5 mg/ml after 48 hr
[23] = tested on: Brontispa longissima; assay: Insecticidal activity against Brontispa longissima fifth-instar larvae fed on compound pre-treated Cocos nucifera L. leaves assessed as insect mortality at 50 ug/ml measured 12 hr after compound treatment; details: in Cocos nucifera
[24] = tested on: Brontispa longissima; assay: Insecticidal activity against Brontispa longissima fifth-instar larvae fed on compound pre-treated Cocos nucifera L. leaves assessed as insect mortality at 1 ug/ml measured 48 hr after compound treatment; details: in Cocos nucifera
[25] = tested on: Brontispa longissima; assay: Insecticidal activity against Brontispa longissima fifth-instar larvae fed on compound pre-treated Cocos nucifera L. leaves assessed as insect mortality at 10 ug/ml measured 48 hr after compound treatment; details: in Cocos nucifera
[26] = tested on: Brontispa longissima; assay: Insecticidal activity against Brontispa longissima fifth-instar larvae fed on compound pre-treated Cocos nucifera L. leaves assessed as insect mortality measured 24 hr after compound treatment; details: in Cocos nucifera
[27] = tested on: Brontispa longissima; assay: Insecticidal activity against Brontispa longissima fifth-instar larvae fed on compound pre-treated Cocos nucifera L. leaves assessed as insect mortality measured 48 hr after compound treatment; details: in Cocos nucifera
[28] = tested on: Brontispa longissima; assay: Insecticidal activity against Brontispa longissima fifth-instar larvae fed on compound pre-treated Cocos nucifera L. leaves assessed as insect mortality at 10 ug/ml measured 24 hr after compound treatment; details: in Cocos nucifera
[29] = tested on: Brontispa longissima; assay: Insecticidal activity against Brontispa longissima fifth-instar larvae fed on compound pre-treated Cocos nucifera L. leaves assessed as insect mortality at 1 ug/ml measured 72 hr after compound treatment; details: in Cocos nucifera
[30] = tested on: Brontispa longissima; assay: Insecticidal activity against Brontispa longissima fifth-instar larvae fed on compound pre-treated Cocos nucifera L. leaves assessed as insect mortality at 10 ug/ml measured 72 hr after compound treatment; details: in Cocos nucifera
[31] = tested on: Spodoptera litura; assay: Insecticidal activity against Spodoptera litura third-instar larvae fed on compound pre-treated Ricinus communis L. leaves assessed as insect mortality at 0.5 mg/ml measured 12 days after compound treatment; details: in Ricinus communis
[32] = tested on: Brontispa longissima; assay: Insecticidal activity against Brontispa longissima fifth-instar larvae fed on compound pre-treated Cocos nucifera L. leaves assessed as insect mortality at 1 ug/ml measured 12 hr after compound treatment; details: in Cocos nucifera

SMILES	Activity [1] [%]	mortality at 50 µg/mL [2] [%]	mortality at 50 µg/mL [3] [%]	mortality at 50 µg/mL [4] [%]	mortality at 50 µg/mL [5] [%]	mortality at 50 µg/mL [6] [%]	mortality at 50 µg/mL [7] [%]	mortality at 50 µg/mL [8] [%]	mortality at 50 µg/mL [9] [%]	mortality at 50 µg/mL [10] [%]	mortality at 50 µg/mL [11] [%]	mortality at 1000 µg/mL [12] [%]	mortality at 50 µg/mL [13] [%]	mortality at 50 µg/mL [14] [%]	Activity [15] [%]	also measured
CC(=O)O[C@@H]1C[C@H](O)[C@@]23CO[C@@H](O)[C@]1(C)[C@@H]2C[C@@H](O)[C@]1(C)[C@@H]3C(=O)[C@H](OC(C)=O)[C@@]2(C)[C@H](c3ccoc3)C[C@H]3O[C@]321 [TOOSENDANIN]	87.1	60	53.3	63.3	73.3	100	53.3	73.3	100	100	83.3	100	96.7	66.7	90.6	
CCC(C)C(=O)OC1[C@@H]2CC3=C4CC(=O)O[C@@H](c5ccoc5)[C@]4(C)CCC3[C@@](C)(C2=O)[C@@H](CC(=O)OC)C1(C)C (some centres not stated) [KHAYASIN]	48.4	100	100	100	100	100	100	100	100	100	100	50	100	100	53	mortality at 1 µg/mL [16]: 20%; mortality at 10 µg/mL [17]: 71.8%; mortality at 50 µg/mL [18]: 100%; Activity [19]: 33.9%; mortality at 50 µg/mL [20]: 100%; mortality at 50 µg/mL [21]: 100%; Activity [22]: 41.7%; mortality at 50 µg/mL [23]: 96.7%; mortality at 1 µg/mL [24]: 23.3%; mortality at 10 µg/mL [25]: 79.3%; LC50 [26]: 7.28 µg/mL (≈ 13.1 µM); LC50 [27]: 3.39 µg/mL (≈ 6.11 µM); mortality at 10 µg/mL [28]: 79.3%; mortality at 1 µg/mL [29]: 26.7%; mortality at 10 µg/mL [30]: 86.3%; mortality at 500 µg/mL [31]: 24.1%; mortality at 1 µg/mL [32]: 23.3%
